Earlier results in patent US5756528A, “Inhibitors of farnesyl-protein transferase” (Merck & Co., Inc., priority 1996, dated 1998).

Test system: farnesyl-protein transferase
Conditions: via HMG-CoA reductase inhibition, background literature

Row | Compound | Indirect inhibition of farnesyl-protein transferase in vivo
1 | CC[C@H](C)C(=O)O[C@H]1CCC=C2C=C[C@H](C)[C@H](CC[C@@H]3C[C@@H](O)CC(=O)O3)[C@H]21 [compactin] | Indirect inhibition of farnesyl-protein transferase in vivo has been demonstrated
2 | CC[C@H](C)C(=O)O[C@H]1C[C@@H](C)C=C2C=C[C@H](C)[C@H](CC[C@@H]3C[C@@H](O)CC(=O)O3)[C@H]21 [lovastatin] | Indirect inhibition of farnesyl-protein transferase in vivo has been demonstrated
